Activity calls are given as the source filed them. The rule behind the calls is not given here.
Assays:
[1] = target: T1, NAD-dependent protein deacetylase sirtuin-1 (Homo sapiens, UniProt Q96EB6); test: (§1) Inhibition of human SIRT1
T1 sequence (Q96EB6 whole entry): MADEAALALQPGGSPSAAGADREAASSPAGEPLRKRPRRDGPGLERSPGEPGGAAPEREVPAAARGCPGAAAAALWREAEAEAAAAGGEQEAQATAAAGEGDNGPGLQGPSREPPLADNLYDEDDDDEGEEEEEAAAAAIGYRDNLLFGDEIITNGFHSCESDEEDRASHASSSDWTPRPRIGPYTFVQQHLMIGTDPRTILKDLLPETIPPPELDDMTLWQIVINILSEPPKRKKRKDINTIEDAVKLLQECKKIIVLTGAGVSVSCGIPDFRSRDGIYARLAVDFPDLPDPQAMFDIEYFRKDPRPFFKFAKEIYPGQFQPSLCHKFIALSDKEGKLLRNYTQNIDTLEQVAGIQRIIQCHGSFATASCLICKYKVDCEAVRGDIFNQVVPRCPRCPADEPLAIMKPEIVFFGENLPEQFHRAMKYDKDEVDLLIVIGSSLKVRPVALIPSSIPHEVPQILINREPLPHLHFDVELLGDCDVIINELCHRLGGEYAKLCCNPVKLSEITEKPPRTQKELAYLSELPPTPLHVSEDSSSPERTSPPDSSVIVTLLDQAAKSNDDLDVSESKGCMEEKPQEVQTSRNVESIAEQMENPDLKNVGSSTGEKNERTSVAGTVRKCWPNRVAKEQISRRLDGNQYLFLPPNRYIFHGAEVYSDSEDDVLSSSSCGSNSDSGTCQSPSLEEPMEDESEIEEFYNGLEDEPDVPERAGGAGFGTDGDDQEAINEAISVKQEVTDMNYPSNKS

[2] = target: T2, NAD-dependent protein deacetylase sirtuin-1 (Homo sapiens) (UniProt Q96EB6); test: Inhibition of human SIRT1 at 2 mM
T2 sequence (whole entry): T1 sequence (Q96EB6 whole entry)

[3] = target: T2, NAD-dependent protein deacetylase sirtuin-1 (Homo sapiens); test: as §1

**Q.** CSCC[C@H](NC(=O)[C@H](CC(C)C)NC(=O)[C@H](CCCC/N=C(/C)S)NC(=O)[C@H](CCCCN)NC(=O)[C@H](Cc1c[nH]cn1)NC(=O)[C@H](CCCN=C(N)N)NC(=O)[C@H](CO)NC(=O)[C@@H](NC(=O)[C@H](CO)NC(=O)[C@H](CCC(N)=O)NC(=O)CNC(=O)[C@H](CCCCN)NC(=O)[C@@H](N)CCCCN)[C@@H](C)O)C(=O)N[C@@H](Cc1ccccc1)C(=O)N[C@@H](CCCCN)C(=O)N[C@H](C(=O)N[C@@H](CCC(=O)O)C(=O)NCC(=O)O)[C@@H](C)O was tested. Which IC50 [1] did it give?
**A.** Its IC50 is 0.002 mM.

**Q.** For CC(=O)N[C@@H](CCCC/N=C(/C)S)C(=O)O, which Activity [2] is on record?
**A.** Its Activity is “inactive”.

**Q.** C/C(S)=N/CCCC[C@H](NC(=O)OCC1c2ccccc2-c2ccccc21)C(=O)O was tested. Which IC25 [3] did it give?
**A.** The IC25 was 2 mM.
